A short description of this data set: Drug-excipient compatibility study, 40° C./75% RH-4 W (% degradants). Type of data set: physicochemical.

Structures can show the parent of a compound that is named as a salt.

`CC(C)(C(=O)O)c1ccc(C(O)CCCN2CCC(C(O)(c3ccccc3)c3ccccc3)CC2)cc1` (stereo not shown) [API, Fexofenadine HCl]: for the setting “40° C./75% RH-4 W”, the “% Total” value was 0.11% and the Description result is “Clear”. Also, under “Initial”, the “% Total” value was found to be 0.09% and the Description entry was “Clear”.

Source of the values: patent US20220184052A1, “COMPOSITION COMPRISING FEXOFENADINE” (Cellix Bio Private Limited, priority 2020, published 2022).
